Test results from patent EP4562003B1, “NOVEL 7-SUBSTITUTED INDOLE SULFONAMIDE DERIVATIVES” (F. Hoffmann-La Roche AG, priority 2022, dated 2024).

biological target: human GPR17 short isoform (Homo sapiens, UniProt Q13304); experiment: GPR17 cAMP assay (TR-FRET cAMP quantification, antagonist mode); assay type: cell-based; conditions: CHO-K1 cells stably expressing human GPR17 short isoform; EC80 of agonist MDL29,951; forskolin 15µM; IBMX 0.5mM; 30 minutes at room temperature; read-out: hGPR17 cAMP IC50
Sequence (Q13304 29-367): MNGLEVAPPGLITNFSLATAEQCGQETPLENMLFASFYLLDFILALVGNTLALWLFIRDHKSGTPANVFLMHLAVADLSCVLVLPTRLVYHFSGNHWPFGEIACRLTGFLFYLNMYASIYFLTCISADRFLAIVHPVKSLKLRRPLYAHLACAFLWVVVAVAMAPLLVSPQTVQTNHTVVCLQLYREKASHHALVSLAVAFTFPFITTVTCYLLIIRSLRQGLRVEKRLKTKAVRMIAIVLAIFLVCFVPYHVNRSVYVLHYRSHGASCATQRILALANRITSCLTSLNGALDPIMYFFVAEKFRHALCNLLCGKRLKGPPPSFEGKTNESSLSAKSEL
Summary of the method: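 CHO-K1 cells stably expressing untagged human GPR17 short isoform, 10'000 cells/well in HBSS/10mM HEPES/0.1% BSA pH 7.4. Compounds added with EC80 MDL29,951 plus 0.5mM IBMX, then 15µM forskolin; 30 min at room temperature. cAMP read by TR-FRET after 90 min lysis; normalized to reference antagonist maximal activity, sigmoidal fit.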

| IC50 | Compound |
| --- | --- |
| 46 nM | COc1nc(NS(=O)(=O)c2c[nH]c3c(-c4nnco4)c(Cl)ccc23)nc(OC)c1OCC(F)F [Example 110, 6-chloro-N-[5-(2,2-difluoroethoxy)-4,6-dimethoxy-pyrimidin-2-yl]-7-(1,3,4-oxadiazol-2-yl)-1H-indole-3-sulfonamide] |
| 218 nM | COc1nc(NS(=O)(=O)c2c[nH]c3c(-c4ncccn4)c(F)ccc23)nc(OC)c1OCC(F)F [Example 26, N-[5-(2,2-difluoroethoxy)-4,6-dimethoxy-pyrimidin-2-yl]-6-fluoro-7-(2-pyrimidyl)-1H-indole-3-sulfonamide] |
| 34 nM | COc1nc(NS(=O)(=O)c2c[nH]c3c(-c4ncn(C)c4C)c(Cl)ccc23)nc(OC)c1OCC(F)F [Example 46, 6-chloro-N-[5-(2,2-difluoroethoxy)-4,6-dimethoxy-pyrimidin-2-yl]-7-(1,5-dimethylimidazol-4-yl)-1H-indole-3-sulfonamide] |
| 55 nM | COc1nc(NS(=O)(=O)c2c[nH]c3c(-c4cnn(C)c4)c(Cl)ccc23)nc(OC)c1CC(F)F [Example 114, 6-chloro-N-[5-(2,2-difluoroethyl)-4,6-dimethoxy-pyrimidin-2-yl]-7-(1-methylpyrazol-4-yl)-1H-indole-3-sulfonamide] |
| 69 nM | COc1nc(NS(=O)(=O)c2c[nH]c3c(-c4nccn4C)c(F)ccc23)nc(OC)c1OCC(F)F [Example 9, N-[5-(2,2-difluoroethoxy)-4,6-dimethoxy-pyrimidin-2-yl]-6-fluoro-7-(1-methylimidazol-2-yl)-1H-indole-3-sulfonamide] |
| 52 nM | COc1nc(NS(=O)(=O)c2c[nH]c3c(-c4cnc(C)cn4)c(Cl)ccc23)nc(OC)c1OCC(F)F [Example 84, 6-chloro-N-[5-(2,2-difluoroethoxy)-4,6-dimethoxy-pyrimidin-2-yl]-7-(5-methylpyrazin-2-yl)-1H-indole-3-sulfonamide] |
| 44 nM | COc1nc(NS(=O)(=O)c2c[nH]c3c(-c4cccnn4)c(Cl)ccc23)nc(OC)c1OCC(F)F [Example 4, 6-chloro-N-[5-(2,2-difluoroethoxy)-4,6-dimethoxy-pyrimidin-2-yl]-7-pyridazin-3-yl-1H-indole-3-sulfonamide] |
| 74 nM | COc1nc(NS(=O)(=O)c2c[nH]c3c(-c4ncccn4)c(C(F)F)ccc23)nc(OC)c1CC(F)F [Example 51, N-[5-(2,2-difluoroethyl)-4,6-dimethoxy-pyrimidin-2-yl]-6-(difluoromethyl)-7-(2-pyrimidyl)-1H-indole-3-sulfonamide] |
| 9 nM | COc1nc(NS(=O)(=O)c2c[nH]c3c(-c4cnccn4)c(Br)ccc23)nc(OC)c1OC(F)F [Example 40, 6-bromo-N-[5-(difluoromethoxy)-4,6-dimethoxy-pyrimidin-2-yl]-7-pyrazin-2-yl-1H-indole-3-sulfonamide] |
| 34 nM | COc1nc(NS(=O)(=O)c2c[nH]c3c(-c4cnn(C)n4)c(Cl)ccc23)nc(OC)c1OCC(F)F [Example 106, 6-chloro-N-[5-(2,2-difluoroethoxy)-4,6-dimethoxy-pyrimidin-2-yl]-7-(2-methyltriazol-4-yl)-1H-indole-3-sulfonamide] |
| 301 nM | COc1nc(NS(=O)(=O)c2c[nH]c3c(-c4ncccn4)c(C(F)F)ccc23)nc(OC)c1OCC(F)F [Example 49, N-[5-(2,2-difluoroethoxy)-4,6-dimethoxy-pyrimidin-2-yl]-6-(difluoromethyl)-7-(2-pyrimidyl)-1H-indole-3-sulfonamide] |
| 37 nM | COc1nc(NS(=O)(=O)c2c[nH]c3c(-c4nccnc4C)c(Cl)ccc23)nc(OC)c1OCC(F)F [Example 73, 6-chloro-N-[5-(2,2-difluoroethoxy)-4,6-dimethoxy-pyrimidin-2-yl]-7-(3-methylpyrazin-2-yl)-1H-indole-3-sulfonamide] |
| 47 nM | COc1nc(NS(=O)(=O)c2c[nH]c3c(-c4cnc(C)cn4)c(Cl)ccc23)nc(OC)c1CC(F)F [Example 82, 6-chloro-N-[5-(2,2-difluoroethyl)-4,6-dimethoxy-pyrimidin-2-yl]-7-(5-methylpyrazin-2-yl)-1H-indole-3-sulfonamide] |
| 40 nM | COc1nc(NS(=O)(=O)c2c[nH]c3c(-c4cscn4)c(Cl)ccc23)nc(OC)c1OCC(F)F [Example 115, 6-chloro-N-[5-(2,2-difluoroethoxy)-4,6-dimethoxy-pyrimidin-2-yl]-7-thiazol-4-yl-1H-indole-3-sulfonamide] |
| 63 nM | COc1nc(NS(=O)(=O)c2c[nH]c3c(-c4cnoc4)c(Cl)ccc23)nc(OC)c1OCC(F)F [Example 118, 6-chloro-N-[5-(2,2-difluoroethoxy)-4,6-dimethoxy-pyrimidin-2-yl]-7-isoxazol-4-yl-1H-indole-3-sulfonamide] |
| 48 nM | COc1nc(NS(=O)(=O)c2c[nH]c3c(-c4ncccn4)c(Cl)ccc23)nc(OC)c1OCC(F)F [Example 1, 6-chloro-N-[5-(2,2-difluoroethoxy)-4,6-dimethoxy-pyrimidin-2-yl]-7-(2-pyrimidyl)-1H-indole-3-sulfonamide] |

| IC50 | Compound |
| --- | --- |
| 61 nM | COc1nc(NS(=O)(=O)c2c[nH]c3c(-c4ncccn4)c(Cl)ccc23)nc(OC)c1C1CC1C#N (centres unmarked) [Example 24, 6-chloro-N-[5-(2-cyanocyclopropyl)-4,6-dimethoxy-pyrimidin-2-yl]-7-(2-pyrimidyl)-1H-indole-3-sulfonamide] |
| 35 nM | COc1nc(NS(=O)(=O)c2c[nH]c3c(-c4nccnc4F)c(Cl)ccc23)nc(OC)c1OCC(F)F [Example 98, 6-chloro-N-[5-(2,2-difluoroethoxy)-4,6-dimethoxy-pyrimidin-2-yl]-7-(3-fluoropyrazin-2-yl)-1H-indole-3-sulfonamide] |
| 25 nM | COc1nc(NS(=O)(=O)c2c[nH]c3c(-c4cnccn4)c(Cl)ccc23)nc(OC)c1OCC(F)F [Example 16, 6-chloro-N-[5-(2,2-difluoroethoxy)-4,6-dimethoxy-pyrimidin-2-yl]-7-pyrazin-2-yl-1H-indole-3-sulfonamide] |
| 43 nM | COc1nc(NS(=O)(=O)c2c[nH]c3c(-c4nccnc4C)cccc23)nc(OC)c1CC(F)F [Example 53, N-[5-(2,2-difluoroethyl)-4,6-dimethoxy-pyrimidin-2-yl]-7-(3-methylpyrazin-2-yl)-1H-indole-3-sulfonamide] |
| 39 nM | COc1nc(NS(=O)(=O)c2c[nH]c3c(-c4nccnc4Cl)c(Cl)ccc23)nc(OC)c1CC(F)F [Example 65, 6-chloro-7-(3-chloropyrazin-2-yl)-N-[5-(2,2-difluoroethyl)-4,6-dimethoxy-pyrimidin-2-yl]-1H-indole-3-sulfonamide] |
| 15 nM | COc1nc(NS(=O)(=O)c2c[nH]c3c(-c4cnccn4)c(Br)ccc23)nc(OC)c1OCC(F)F [Example 41, 6-bromo-N-[5-(2,2-difluoroethoxy)-4,6-dimethoxy-pyrimidin-2-yl]-7-pyrazin-2-yl-1H-indole-3-sulfonamide] |
| 24 nM | COc1nc(NS(=O)(=O)c2c[nH]c3c(-c4ccn(C)n4)c(Cl)ccc23)nc(OC)c1OC(F)F [Example 67, 6-chloro-N-[5-(difluoromethoxy)-4,6-dimethoxy-pyrimidin-2-yl]-7-(1-methylpyrazol-3-yl)-1H-indole-3-sulfonamide] |
| 32 nM | COc1nc(NS(=O)(=O)c2c[nH]c3c(-c4cocn4)c(Cl)ccc23)nc(OC)c1OCC(F)F [Example 14, 6-chloro-N-[5-(2,2-difluoroethoxy)-4,6-dimethoxy-pyrimidin-2-yl]-7-oxazol-4-yl-1H-indole-3-sulfonamide] |
| 32 nM | COc1nc(NS(=O)(=O)c2c[nH]c3c(-c4cnccn4)c(Cl)ccc23)nc(OC)c1OC(F)F [Example 20, 6-chloro-N-[5-(difluoromethoxy)-4,6-dimethoxy-pyrimidin-2-yl]-7-pyrazin-2-yl-1H-indole-3-sulfonamide] |
| 80 nM | COc1nc(NS(=O)(=O)c2c[nH]c3c(-c4ncccn4)c(Cl)ccc23)nc(OC)c1OCCF [Example 22, 6-chloro-N-[5-(2-fluoroethoxy)-4,6-dimethoxy-pyrimidin-2-yl]-7-(2-pyrimidyl)-1H-indole-3-sulfonamide] |
| 17 nM | COc1nc(NS(=O)(=O)c2c[nH]c3c(-c4cn(C)cn4)c(Cl)ccc23)nc(OC)c1OCC(F)F [Example 47, 6-chloro-N-[5-(2,2-difluoroethoxy)-4,6-dimethoxy-pyrimidin-2-yl]-7-(1-methylimidazol-4-yl)-1H-indole-3-sulfonamide] |
| 30 nM | COc1nc(NS(=O)(=O)c2c[nH]c3c(-c4nccn4C)c(F)ccc23)nc(OC)c1CC(F)F [Example 10, N-[5-(2,2-difluoroethyl)-4,6-dimethoxy-pyrimidin-2-yl]-6-fluoro-7-(1-methylimidazol-2-yl)-1H-indole-3-sulfonamide] |
| 1420 nM | COc1nc(NS(=O)(=O)c2c[nH]c3c(-c4ncccn4)cccc23)nc(OC)c1OCC(F)F [Example 72, N-[5-(2,2-difluoroethoxy)-4,6-dimethoxy-pyrimidin-2-yl]-7-(2-pyrimidyl)-1H-indole-3-sulfonamide] |
| 76 nM | COc1nc(NS(=O)(=O)c2c[nH]c3c(-c4cnn(C)n4)c(Cl)ccc23)nc(OC)c1OC(F)F [Example 107, 6-chloro-N-[5-(difluoromethoxy)-4,6-dimethoxy-pyrimidin-2-yl]-7-(2-methyltriazol-4-yl)-1H-indole-3-sulfonamide] |
| 84 nM | COc1nc(NS(=O)(=O)c2c[nH]c3c(-c4cnccn4)c(F)ccc23)nc(OC)c1CC(F)F [Example 31, N-[5-(2,2-difluoroethyl)-4,6-dimethoxy-pyrimidin-2-yl]-6-fluoro-7-pyrazin-2-yl-1H-indole-3-sulfonamide] |
| 68 nM | COc1nc(NS(=O)(=O)c2c[nH]c3c(-c4cnccn4)c(C)ccc23)nc(OC)c1OC(F)F [Example 59, N-[5-(difluoromethoxy)-4,6-dimethoxy-pyrimidin-2-yl]-6-methyl-7-pyrazin-2-yl-1H-indole-3-sulfonamide] |
